Reference: article PMC9917099, “The Mycotoxin Patulin Inhibits the Mitochondrial Carnitine/Acylcarnitine Carrier (SLC25A20) by Interaction with Cys136 Implications for Human Health” (International Journal of Molecular Sciences, 2023)
“And” between values parts separate entries of the source, which are not always exact repeats. Equal values may be shown once.

Columns and labels:
[1] = target: T1, recombinant human WT CAC (Homo sapiens, UniProt O43772); assay: [3H]-carnitine/carnitine antiport in proteoliposomes with recombinant human WT CAC; assay type: biochemical; settings: PAT 30 min, read-out: IC50 of CAC WT inhibition
T1 construct: made in house; host or cells: E. coli C0214 (pMW7, inclusion bodies)
T1 sequence (O43772 1-301): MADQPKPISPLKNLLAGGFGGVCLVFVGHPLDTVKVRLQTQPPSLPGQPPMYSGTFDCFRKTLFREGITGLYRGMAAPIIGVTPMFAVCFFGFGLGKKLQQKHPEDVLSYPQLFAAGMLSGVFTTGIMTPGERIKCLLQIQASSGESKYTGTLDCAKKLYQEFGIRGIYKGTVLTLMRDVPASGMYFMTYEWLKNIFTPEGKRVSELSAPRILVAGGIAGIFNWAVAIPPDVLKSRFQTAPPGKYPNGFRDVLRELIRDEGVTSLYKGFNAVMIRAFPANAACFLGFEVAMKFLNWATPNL
Experimental: (§1) To shed light on the interaction between PAT and CAC and verify if specific Cys residues were involved, transport experiments on the recombinant rat and human WT CAC and CAC’s rat Cys mutants were performed. As in the case of the native protein, transport activities were measured as [^3H]-carnitine/carnitine antiport in proteoliposomes. […] The PAT inhibition of the WT recombinant protein was only slightly greater compared to the native protein, although compounds and other molecular systems that affect the mycotoxin binding to the native CAC were absent (see above). For identifying the residues involved in the PAT interaction, site-directed Cys mutants were tested for inhibition (Figure 2). […]
(§2) Figure 2 Dose-response analysis of the PAT inhibition of the CAC recombinant proteins. […] The data are expressed as a percentage of the controls (no PAT addition) and are means ± SD of three independent experiments. […]
(§3) For the transport assay, 550 μL of proteoliposomes were passed through a Sephadex G-75 column in order to remove the external substrate. […] After finishing the transport reaction, the external radiolabel substrate was removed by gel filtration chromatography (Sephadex G-75), and the intraliposomal radioactivity was measured by liquid scintillation. Transport was measured at 25 °C. […] Transport rates were measured in 10 min, i.e., within the initial linear range of the time course.

[2] = Stability of PAT solution stored at room temperature, read out as inhibition of recombinant WT CAC transport; assay type: physicochemical; settings: 25 and 50 µM PAT, stored at r.t., 24 and 72 h
Source text: Figure 3A reports the interaction of PAT with the reconstituted WT protein. The inhibition observed after the pretreatment of proteoliposomes with the mycotoxin was not reversed by DTE, confirming the formation of an irreversible covalent bond between CAC and PAT also with the purified recombinant protein (see above Figure 1B). For evaluating the stability of the drug following prolonged storage, we measured the inhibition of the transport activity of WT adding to the samples, at various time, the same PAT solution stored at room temperature (r.t.).
Figure 3 (A) Reversal of PAT inhibition on recombinant protein by DTE. The carnitine homo-exchange transport activity was measured, as described in Materials and Methods, adding 0.1 mM [^3H] carnitine to proteoliposomes reconstituted with the recombinant WT CAC containing 15 mM internal carnitine in the absence or presence of 50 μM PAT, added 30 min before the labelled substrate. 5 mM dithioerythritol (DTE) was added 1 min before the transport assay in a control and PAT treated aliquot, respectively. […] Proteoliposomes reconstituted with the WT CAC were incubated by the same PAT solution (25 and 50 µM) after 0.5 h, 24 h and 72 h (white, grey and black bars, respectively) and then the transport activity was measured by adding 0.1 mM [^3H]-carnitine and stopped after 30 min as described in Materials and Methods.

[3] = target: T2, rat CAC mutant C23V/C58V/C89S/C136V/C283S (Rattus norvegicus, UniProt P97521, C136V/C23V/C283S/C58V/C89S); assay: Carnitine antiport in proteoliposomes, CAC mutant containing only C155; assay type: biochemical
T2 construct: made in house; host or cells: E. coli C0214 (pMW7, inclusion bodies)
T2 sequence (P97521 1-301 C23V/C58V/C89S/C136V/C283S): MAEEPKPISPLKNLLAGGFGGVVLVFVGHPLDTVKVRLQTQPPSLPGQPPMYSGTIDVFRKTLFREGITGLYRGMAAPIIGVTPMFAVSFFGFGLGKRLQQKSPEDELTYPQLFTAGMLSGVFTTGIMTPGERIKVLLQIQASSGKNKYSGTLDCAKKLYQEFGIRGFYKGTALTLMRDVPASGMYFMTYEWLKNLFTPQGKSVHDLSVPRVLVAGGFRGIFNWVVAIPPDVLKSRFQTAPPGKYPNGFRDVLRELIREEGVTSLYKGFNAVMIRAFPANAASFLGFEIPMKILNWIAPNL
Experimental: as §1, §2, §3

O=C1C=C2C(=CCOC2O)O1 (stereo not drawn) [PAT, 4-hydroxy-4H-furo [3,2c] pyran-2 [6H] -one]
IC50 [1]: 50 µM and ~50 µM | reactivity towards CAC of stored PAT solution [2]: does not change | IC50 [3]: not possible to detect
